#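 Following 48 hours of exposure in 96-well plates, responses at five concentrations were used to interpolate endpoints linearly. GI50 marks 50% less growth. The concentration for full growth arrest is given as TGI.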
# Columns and labels:
# Experiment in all cases: growth of human tumour cells (NCI), 48 h
# HCC-2998 colon = test system: HCC-2998 colon
# SK-MEL-28 melanoma = test system: SK-MEL-28 melanoma
# OVCAR-3 ovarian = test system: OVCAR-3 ovarian
# PC-3 prostate = test system: PC-3 prostate
# SR leukemia = test system: SR leukemia
# M14 melanoma = test system: M14 melanoma
# MOLT-4 leukemia = test system: MOLT-4 leukemia
# HOP-62 NSCLC = test system: HOP-62 NSCLC
# SNB-19 CNS = test system: SNB-19 CNS
# HS 578T breast = test system: HS 578T breast
# OVCAR-5 ovarian = test system: OVCAR-5 ovarian
# LOX IMVI melanoma = test system: LOX IMVI melanoma
# HCT-116 colon = test system: HCT-116 colon
# SF-268 CNS = test system: SF-268 CNS
# HOP-92 NSCLC = test system: HOP-92 NSCLC
# SF-539 CNS = test system: SF-539 CNS
# NCI-H522 lung = test system: NCI-H522 lung
# CAKI-1 renal = test system: CAKI-1 renal
# SNB-75 CNS = test system: SNB-75 CNS
# HL-60(TB) leukemia = test system: HL-60(TB) leukemia
# SK-OV-3 ovarian = test system: SK-OV-3 ovarian
# RPMI-8226 leukemia = test system: RPMI-8226 leukemia
# UO-31 renal = test system: UO-31 renal
# MCF7 breast = test system: MCF7 breast
# OVCAR-8 ovarian = test system: OVCAR-8 ovarian
# NCI-H226 lung = test system: NCI-H226 lung
# 786-0 renal = test system: 786-0 renal
# COLO 205 colon = test system: COLO 205 colon
# A549 NSCLC = test system: A549 NSCLC
# SW-620 colon = test system: SW-620 colon
# RXF 393 renal = test system: RXF 393 renal
# SK-MEL-2 melanoma = test system: SK-MEL-2 melanoma
# NCI/ADR-RES ovarian = test system: NCI/ADR-RES ovarian
# U251 CNS = test system: U251 CNS
# CCRF-CEM leukemia = test system: CCRF-CEM leukemia
# K-562 leukemia = test system: K-562 leukemia
# NCI-H23 lung = test system: NCI-H23 lung
# IGROV1 ovarian = test system: IGROV1 ovarian
# TK-10 renal = test system: TK-10 renal
# DU-145 prostate = test system: DU-145 prostate
# NCI-H460 lung = test system: NCI-H460 lung
# A498 renal = test system: A498 renal
# T-47D breast = test system: T-47D breast
# HT29 colon = test system: HT29 colon
# HCT-15 colon = test system: HCT-15 colon
# MDA-MB-231 breast = test system: MDA-MB-231 breast
# ACHN renal = test system: ACHN renal
# MALME-3M melanoma = test system: MALME-3M melanoma
# OVCAR-4 ovarian = test system: OVCAR-4 ovarian
# BT-549 breast = test system: BT-549 breast
# UACC-62 melanoma = test system: UACC-62 melanoma
# MDA-MB-435 = test system: MDA-MB-435
# SN12C renal = test system: SN12C renal
# SK-MEL-5 melanoma = test system: SK-MEL-5 melanoma
# KM12 colon = test system: KM12 colon
# UACC-257 melanoma = test system: UACC-257 melanoma
compound,measurement,setting,value
COc1ccc(C2=N[C@@H](Cc3ccccc3)C(=O)Nc3ccsc32)cc1,GI50,HCC-2998 colon,12 µM
same,TGI,HCC-2998 colon,25.8 µM
same,GI50,SK-MEL-28 melanoma,9.66 µM
same,TGI,SK-MEL-28 melanoma,24.5 µM
same,GI50,OVCAR-3 ovarian,3.56 µM
same,TGI,OVCAR-3 ovarian,9.88 µM
same,GI50,PC-3 prostate,3.78 µM
same,TGI,PC-3 prostate,25.2 µM
same,GI50,SR leukemia,2.63 µM
same,TGI,SR leukemia,11.7 µM
same,GI50,M14 melanoma,3.66 µM
same,TGI,M14 melanoma,12.6 µM
same,GI50,MOLT-4 leukemia,3.98 µM
same,TGI,MOLT-4 leukemia,19.3 µM
same,GI50,HOP-62 NSCLC,5.81 µM
same,TGI,HOP-62 NSCLC,19.1 µM
same,GI50,SNB-19 CNS,9.93 µM
same,TGI,SNB-19 CNS,58.3 µM
same,GI50,HS 578T breast,3.24 µM
same,TGI,HS 578T breast,28.8 µM
same,GI50,OVCAR-5 ovarian,11.5 µM
same,TGI,OVCAR-5 ovarian,36.4 µM
same,GI50,LOX IMVI melanoma,6.48 µM
same,TGI,LOX IMVI melanoma,22 µM
same,GI50,HCT-116 colon,5.38 µM
same,TGI,HCT-116 colon,17.7 µM
same,GI50,SF-268 CNS,10.4 µM
same,TGI,SF-268 CNS,43.8 µM
same,GI50,HOP-92 NSCLC,2.32 µM
same,TGI,HOP-92 NSCLC,16.7 µM
same,GI50,SF-539 CNS,2.75 µM
same,TGI,SF-539 CNS,9.84 µM
same,GI50,NCI-H522 lung,2.71 µM
same,TGI,NCI-H522 lung,8.98 µM
same,GI50,CAKI-1 renal,3.87 µM
same,TGI,CAKI-1 renal,33.8 µM
same,GI50,SNB-75 CNS,2.05 µM
same,TGI,SNB-75 CNS,7.08 µM
same,GI50,HL-60(TB) leukemia,3.91 µM
same,TGI,HL-60(TB) leukemia,19.3 µM
same,GI50,SK-OV-3 ovarian,4.56 µM
same,TGI,SK-OV-3 ovarian,17.3 µM
same,GI50,RPMI-8226 leukemia,3.29 µM
same,TGI,RPMI-8226 leukemia,18.8 µM
same,GI50,UO-31 renal,8.7 µM
same,TGI,UO-31 renal,34.6 µM
same,GI50,MCF7 breast,3.73 µM
same,TGI,MCF7 breast,25.4 µM
same,GI50,OVCAR-8 ovarian,6.31 µM
same,TGI,OVCAR-8 ovarian,57.6 µM
same,GI50,NCI-H226 lung,11.2 µM
same,TGI,NCI-H226 lung,42 µM
same,GI50,786-0 renal,10.7 µM
same,TGI,786-0 renal,36.6 µM
same,GI50,COLO 205 colon,2.49 µM
same,TGI,COLO 205 colon,5.03 µM
same,GI50,A549 NSCLC,4.69 µM
same,TGI,A549 NSCLC,29.5 µM
same,GI50,SW-620 colon,4.38 µM
same,TGI,SW-620 colon,27.9 µM
same,GI50,RXF 393 renal,2.75 µM
same,TGI,RXF 393 renal,9.6 µM
same,GI50,SK-MEL-2 melanoma,11.7 µM
same,TGI,SK-MEL-2 melanoma,30 µM
same,GI50,NCI/ADR-RES ovarian,3.84 µM
same,TGI,NCI/ADR-RES ovarian,33 µM
same,GI50,U251 CNS,4.51 µM
same,TGI,U251 CNS,20.5 µM
same,GI50,CCRF-CEM leukemia,3.46 µM
same,TGI,CCRF-CEM leukemia,28.1 µM
same,GI50,K-562 leukemia,3.75 µM
same,TGI,K-562 leukemia,27 µM
same,GI50,NCI-H23 lung,11.1 µM
same,TGI,NCI-H23 lung,39.6 µM
same,GI50,IGROV1 ovarian,12.8 µM
same,TGI,IGROV1 ovarian,41 µM
same,GI50,TK-10 renal,13 µM
same,TGI,TK-10 renal,56.6 µM
same,GI50,DU-145 prostate,4.65 µM
same,TGI,DU-145 prostate,21.9 µM
same,GI50,NCI-H460 lung,3.53 µM
same,TGI,NCI-H460 lung,14.4 µM
same,GI50,A498 renal,2.32 µM
same,TGI,A498 renal,9.04 µM
same,GI50,T-47D breast,5.64 µM
same,TGI,T-47D breast,48.4 µM
same,GI50,HT29 colon,4.04 µM
same,TGI,HT29 colon,13.4 µM
same,GI50,HCT-15 colon,3.9 µM
same,TGI,HCT-15 colon,20.4 µM
same,GI50,MDA-MB-231 breast,11.4 µM
same,TGI,MDA-MB-231 breast,29.1 µM
same,GI50,ACHN renal,6.27 µM
same,TGI,ACHN renal,39.1 µM
same,GI50,MALME-3M melanoma,10.4 µM
same,TGI,MALME-3M melanoma,25.9 µM
same,GI50,OVCAR-4 ovarian,11.2 µM
same,TGI,OVCAR-4 ovarian,83 µM
same,GI50,BT-549 breast,10.6 µM
same,TGI,BT-549 breast,28.5 µM
same,GI50,UACC-62 melanoma,4.47 µM
same,TGI,UACC-62 melanoma,20.2 µM
same,GI50,MDA-MB-435,1.52 µM
same,TGI,MDA-MB-435,4 µM
same,GI50,SN12C renal,8.28 µM
same,TGI,SN12C renal,25.7 µM
same,GI50,SK-MEL-5 melanoma,3.26 µM
same,TGI,SK-MEL-5 melanoma,12.1 µM
same,GI50,KM12 colon,5.62 µM
same,TGI,KM12 colon,20.9 µM
same,GI50,UACC-257 melanoma,11.6 µM
same,TGI,UACC-257 melanoma,36.7 µM

# Source: PubChem BioAssay (NCI)
